Experiment [1] concerns PAF-induced cutaneous vascular permeability. As to the kind of experiment: In vivo assay: inhibition of PAF-induced increase of cutaneous vasopermeability in guinea pigs after oral dosing. The conditions noted are these: guinea pig. As for the experimental part: The specific PAF-antagonistic activities are further established by in vivo assays following the protocol (modified procedure of Humphrey et al., Lab. Investigation, 46, 422 (1982)) described below:
Protocol for the Evaluation of the Oral Activity of
PAF Antagonists or the Inhibition of PAF-Induced
Increase of Vasopermeability by PAF-Antagonists
I. Animal species: 5 guinea pigs (400-500 g)
(4.) Ground and suspend a PAF antagonist of formula
(I) with intensive sonication in 3 ml of 0.5%
aqueous methylcellulose solution.
(5.) Administer orally to each of the animals T1,
T2, T3 and T4 an appropriate amount (in
terms of mg/kg of bodyweight) of the antagonist
solution from 4), except the control animal
(6.) Forty minutes after the oral administration,
(7.) After 20 minutes or when the anesthetics became
effective, inject intracardially to each animal
and inject intracutaneously, in duplicate 0.1
ml of a PAF solution in Tris-buffer or 0.1 ml
of the Tris-buffer itself (control) according
(9.) Wait for 30 minutes or until the blue color
(13.) In the meantime, extract a 100 μl sample of
(15.) Measure the absorbance of each supernatant from
Palo Alto, CA). Calculate the amount of Evans
blue in each skin sample in terms of the volume
(μl) of the exuded blood plasma according to
the following equation: […]
(16.) Draw a plasma exudation curve
(17.) Calculate the percent inhibition of PAF-induced
cutaneous vascular permeability from measuring
the area under the plasma exudation curve of
the control animal (AC) and that of an
animal treated orally with an antagonist
(AD), for example T1, according to the […]

Experiment [2] has as its target T1, PAF specific receptor binding site on rabbit platelet plasma membranes (Oryctolagus cuniculus, UniProt G1TEI7).
T1 construct: from tissue; host or cells: rabbit platelets (plasma membrane suspension)
The experiment is described as follows: Inhibition of 3H-PAF binding to rabbit platelet plasma membranes. To be noted: read-out: % Inhibition of PAF Binding. As for the experimental part: In vitro, they inhibit PAF-induced functions in both the cellular and tissue levels by disturbing the PAF binding to its specific receptor site. The ability of a compound of formula (I) to inhibit the PAF binding to its specific receptor binding site on rabbit platelet plasma membranes was measured by an assay recently developed by us.
The inhibition of H^3 -PAF binding to the rabbit platelet plasma membrane by a PAF-antagonist of Formula (I) was determined by a method employing isotropic labeling and filtration techniques. Generally, a series of Tris-buffered solutions of the selected antagonist at predetermined concentrations were prepared. Each of these solutions contains 1 pmole of ^3 H-PAF, a known amount of the test antagonist, and a sufficient amount of the pH 7.5 Tris-buffer solution (10 mM Tris, 0.25% bovine serum albumin, and 150 mM NaCl per ml water) to make the final volume of 1 ml. After adding into a set of test tubes each with 100 μg of the platelet plasma membrane suspension (S. B. Hwang, et al., Biochemistry, 22, 4756 (1983)) and one of the Tris-buffer solutions described above, the resulting mixture in each test tube was incubated at 0° C. for about one hour or until the reaction was complete. Two control samples, one of which (C1) contains all the ingredients described above except the antagonist and the other (C2) contains C1 plus a 1000-fold excess of unlabeled PAF, were also prepared and incubated simultaneously with the test samples. After the incubation was completed, the contents of each test tube were filtered under vacuo through a Whatman GF/C fiberglass filter and the residue washed rapidly several times with a total of 20 ml cold (0°-5° C.) Tris-buffer solution. Each washed residue was then suspended in 10 ml scintillation solution (Aquasol 2, New England Nuclear, Connecticut) and the radioactivity was counted in a Packard Tri-Carb 460CD Liquid Scintillation System. Defining the counts from a test sample as "Total binding with antagonist"; the counts from the control sample C1, as "Total binding C1 "; and the counts from the control sample C2 as "non-specific binding C2 ", the percent inhibition of each test antagonist can be determined by the following equation: [formula]

[3] abbreviates: Table 1, E (trans), dose 0.1 μM.
Setting [4] is: Table 1, E (trans), dose 0.5 μM.

The values that follow come from patent US4656190A, “Indene derivatives and their use as PAF-antagonists” (Merck & Co., Inc., priority 1983, dated 1987).

SMILES strings stand for the structures. Read-outs that look alike come from different tables or passages of the source.

What is called inhibition is how much of the control response was suppressed.

T1 sequence (G1TEI7 1-342): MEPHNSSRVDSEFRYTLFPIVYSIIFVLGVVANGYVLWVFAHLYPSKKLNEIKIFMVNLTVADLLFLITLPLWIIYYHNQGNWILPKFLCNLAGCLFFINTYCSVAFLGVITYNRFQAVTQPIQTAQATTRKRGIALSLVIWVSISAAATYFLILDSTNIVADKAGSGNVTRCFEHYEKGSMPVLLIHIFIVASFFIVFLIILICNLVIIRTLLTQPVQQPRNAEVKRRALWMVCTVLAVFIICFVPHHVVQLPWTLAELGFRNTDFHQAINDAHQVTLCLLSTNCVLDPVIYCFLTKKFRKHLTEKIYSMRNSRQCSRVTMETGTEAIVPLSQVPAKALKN

On to `COCCC1=C(C)/C(=C\c2ccc(S(N)(=O)=O)cc2)c2ccc(OC)cc21` [E CH2CH2OCH3 / SO2NH2 / OCH3, E 1-(4-aminosulfonylphenyl)methylene-5-methoxy-2-methyl-1H-3-indenyl-(2-methoxy)ethane], for which the “% In Vivo Inhibition of PAF Receptor” value in experiment [1] (10 mg/kg) is recorded as 28%. For the same compound, the “% In Vivo Inhibition of PAF Receptor” value in experiment [1] (20 mg/kg) amounted to 60%. In addition, in experiment [1] (30 mg/kg), the “% In Vivo Inhibition of PAF Receptor” value is recorded as 67%. In addition, in experiment [2], the inhibition at 0.05 µM is 20%, the inhibition at 0.1 µM worked out at 40%, the inhibition at 0.25 µM was 58% and the inhibition at 0.5 µM is 76%. Further, in experiment [2], the inhibition at 1 µM was 80%, the inhibition at 2.5 µM was 100% and the inhibition at 5 µM worked out at 100%.
Consider `COc1ccc2c(c1)C(CCSC)=C(C)/C2=C\c1ccc(S(N)(=O)=O)cc1` [E CH2CH2SCH3 / SO2NH2 / OCH3, E 1-(4-aminosulfonylphenyl)methylene-5-methoxy-2-methyl-1H-3-indenyl-(2-methylthio)ethane], for which the figures for the “% In Vivo Inhibition of PAF Receptor” value in experiment [1] (10 mg/kg) and in experiment [1] (20 mg/kg) were 30% and 46%, respectively. Moreover, the inhibition at 0.1 µM in experiment [2] (setting [3]) worked out at 34%. In experiment [2] (setting [4]), the inhibition at 0.5 µM came out at 78%. Further, the inhibition at 1 µM in experiment [2] (Table 1, E (trans), dose 1 μM) was found to be 100%.
In the case of `COc1ccc2c(c1)C(CCS(C)(=O)=O)=C(C)/C2=C\c1ccc(S(N)(=O)=O)cc1` [E CH2CH2SO2CH3 / SO2NH2 / OCH3, E 1-(4-aminosulfonylphenyl)methylene-5-methoxy-2-methyl-1H-3-indenyl-(2-methylsulfonyl)ethane], the “% In Vivo Inhibition of PAF Receptor” value in experiment [1] (10 mg/kg) came to 9%; in experiment [1] (20 mg/kg) it was 45%. Also, the inhibition at 0.1 µM in experiment [2] (setting [3]) is 35%. Further, the inhibition at 0.5 µM in experiment [2] (setting [4]) came to 61%. Further, the inhibition at 1 µM in experiment [2] (Table 1, E (trans), dose 1 μM) was found to be 81%. In addition, the inhibition at 5 µM in experiment [2] (Table 1, E (trans), dose 5 μM) was 100%.
`COC(=O)CC1=C(C)/C(=C\c2ccc(S(N)(=O)=O)cc2)c2ccc(OC)cc21` [E CH2COOCH3 / SO2NH2 / OCH3, E methyl 1-(4-aminosulfonylphenyl)methylene-5-methoxy-2-methyl-1H-3-indenylacetate]: the “% In Vivo Inhibition of PAF Receptor” value in experiment [1] (50 mg/kg) came out at 0%. Besides, the inhibition at 0.1 µM in experiment [2] (setting [3]) is 35%. Also, the inhibition at 0.5 µM in experiment [2] (setting [4]) amounted to 70%. Also, the inhibition at 1 µM in experiment [2] (Table 1, E (trans), dose 1 μM) amounted to 84%. In addition, the inhibition at 5 µM in experiment [2] (Table 1, E (trans), dose 5 μM) is 100%.
`COc1ccc2c(c1)C(CCn1ccnc1)=C(C)/C2=C\c1ccc(S(N)(=O)=O)cc1` [E drawing 22 / SO2NH2 / OCH3]: the “% In Vivo Inhibition of PAF Receptor” value in experiment [1] (45 mg/kg) worked out at 52%; in experiment [1] (50 mg/kg), 59%.
